Results on 22 compounds are retold here after US4130645A (priority 1978, dated 1978).

The test system of series [1] is Pyricularia oryzae Carvara. Conditions: in vivo.
Another series concerns rice. As to conditions: 1000 ppm.
In another series the test system is groundsel and chickweed. As to conditions: in vivo; cited from earlier work.
Another series concerns crops. As to conditions: in vivo; cited from earlier work.
Series [2] deals with Venturia inaequalis (Cke.) Wint. The experiment in a line: whole plant or invertebrate. The series is classed as in vivo. Conditions: in vivo.
The test system of series [3] is Podosphaera leucotricha (E&E) Salm. The series is described as follows: whole plant or invertebrate. Type of series: in vivo. Conditions: for activity against apple powdery mildew: in vivo; for pest or weed control at 500 ppm: Podosphaera leucotricha, foliar, read-out: Apple Powdery Mildew Percent Disease Control.
Series [4] concerns Puccinia recondita var. tritici. The series is described as follows: Protectant control of leaf rust of wheat. The series is classed as in vivo. As to the method:
(§1) Individual pots of approximately 20 to 25 wheat (Triticum vulgare, cv. Cheyenne) plants each, grown under greenhouse conditions, approximately 7 to 8 days old and 10.2 to 12.7 cm. tall are used as test plants, a minimum of three such pots per unit of test.
(§2) The required amount of test compound is dissolved in 10 ml. of a stock solution consisting of 1995 ml. acetone, 4 ml. sorbitan trioleate and 1 ml. polyoxyethylene (20) sorbitan monooleate and diluted to a volume of 100 ml. by addition of 90 ml. deionized water.
(§3) Test plants, three pots per unit of test, are mounted on a compound turntable and sprayed to incipient run-off with the test solution applied at 2.81 kg/cm^2 pressure for 60 seconds using a solid conte T-Jet 8801E spray nozzle. By this spray procedure the delivery rate is equivalent to approximately 467.7 l/ha.
(§4) Treated plants are allowed to air dry for 5 to 6 hours and then inoculated by uniformly dusting with urediospores of leaf rust of wheat (Puccinia recondita var. tritici) at a rate of approximately 2 × 10^5 urediospores per replicate, using urediospores directly from diseased plants. Inoculated plants are immediately placed in an incubation chamber maintained at 21° C. and 95% + RH. After 24 hours plants are removed to the greenhouse and maintained under greenhouse conditions of 21° to 29.4° C. and 50 to 75% RH for 5 to 8 days until signs of orange pustules visible to the naked eye appear on the inoculated but otherwise untreated controls.
Effectiveness of the compound, as applied, is expressed as Percent Control calculated as: [formula]
Average number of pustules on plants of any given test unit is determined by randomly dividing all plants in each of the three replicates (one pot per replicate) into quadrants, counting the actual number of pustules on all plants within a quadrant in each of the three replicates, multiplying by four and averaging the total number of pustules thus obtained as the average number of pustules per replicate.

Series [5] in a line: Thermal decomposition point (Differential Thermal Analyzer). The series is classed as physicochemical. As to conditions: 20° C./min, onset method; listed as Parent Compound. As to the method: By the procedure of Examples 2 and 5 the following novel salts of 2,3,5,6-tetrachloro-N-nitroaniline are prepared as listed in Table II below. The melting points (uncorrected) of said salts are determined on a Thomas Hoover Capillary Melting Point Apparatus; while the thermal decomposition points of said salts are determined on a Dupont 900 Differential Thermal Analyzer. […] Decompositions are recorded by an exothermic response and the temperatures given in Table II below are assessed by the "onset method".

The next series has as its system wheat. The experiment in a line: Plant injury to wheat in leaf rust test. Type of series: in vivo, Triticum vulgare, cv. Cheyenne. As to the method: as §1, §2, §3, §4

For the compound `O=[N+]([O-])Nc1c(Cl)c(Cl)cc(Cl)c1Cl` [drawing 58], the “Rice Blast Percent Disease Control” value in series [1] is 83%. Moreover, the phytotoxicity entry in the series on rice is given as “M/Sv”.

On to `O=[N+]([O-])Nc1c(Cl)c(Cl)cc(Cl)c1Cl` [drawing 61], for which the “Rice Blast Percent Disease Control” value in series [1] amounted to 83%.

For `Cc1cccc(N[N+](=O)[O-])c1C` [2,3-dimethylphenylnitramine], the “activity against the rice blast pathogen” value in [1] is “considerable activity”.

Turning to `Cc1cccc(N[N+](=O)[O-])c1C` [drawing 55], in series [1], the “Rice Blast Percent Disease Control” value stood at 81%.

For `O=C(O)C1(O)c2ccccc2-c2ccc(Cl)cc21` (centres unmarked) [2-chloro-9-fluorenol-9-carboxylic acid], in the series on groundsel and chickweed, the weed control entry is reported as “weed control is achieved”. Also, in the series on crops, the selectivity result was “very little selectivity” and the “susceptibility of most crops examined” value is “susceptible”.

As for `O=[N+]([O-])Nc1c(Br)cc(C(F)(F)F)cc1Br` [2,6-dibromo-4-trifluoromethylphenylnitramine], in series [2], the “activity against apple scab” value is “active”. The “activity against apple powdery mildew” value in series [3] is on record as “active”.

`O=[N+]([O-])Nc1c(Cl)c(Cl)cc(Cl)c1Cl` [2,3,5,6-Tetrachloro-N-nitroaniline, 2,3,5,6-tetrachloro-N-nitroaniline]: the “% Control (Ave)” value is listed as 35% in series [4] (50 ppm), 58% in [4] (100 ppm) and 69% in series [4] (200 ppm). Besides, the “No. of Infection Loci/Replicate” value in [4] (50 ppm, Rep. 1) was 186; in [4] (50 ppm, Rep. 2) it was 173; in series [4] (50 ppm, Rep. 3), 199; in series [4] (100 ppm, Rep. 1) it was 124; in series [4] (100 ppm, Rep. 2), 119; in series [4] (100 ppm, Rep. 3), 116. In addition, the “No. of Infection Loci/Replicate” value is reported as 81 in series [4] (200 ppm, Rep. 1); 96 in series [4] (200 ppm, Rep. 2); 86 in [4] (200 ppm, Rep. 3). The “Thermal Decomposition Point” value in [5] stood at 150 °C. The “Plant Injury (Ave)” value in the series with wheat (50 ppm), in the series with wheat (100 ppm) and in the series with wheat (200 ppm) was 0 each time.

In the case of `O=[N+]([O-])Nc1ccc(C(F)(F)F)cc1` [4-trifluoromethylphenylnitramine], the “activity against the rice blast pathogen” value in series [1] is given as “considerable activity”.

As to `O=[N+]([O-])Nc1c(Cl)c(Cl)cc(Cl)c1Cl` [drawing 60], the “Rice Blast Percent Disease Control” value in series [1] worked out at 83%.

As for `CC(=O)N(c1c(Cl)c(Cl)cc(Cl)c1Cl)[N+](=O)[O-]` [drawing 57], the “Rice Blast Percent Disease Control” value in series [1] came to 100%.

With `O=[N+]([O-])Nc1cccc(Cl)c1Cl` [drawing 74], the pest or weed control at 500 ppm in series [3] was found to be 96%.

Take `O=[N+]([O-])Nc1c(Br)cc(C(F)(F)F)cc1Br` [drawing 79]: the pest or weed control at 500 ppm in [3] was determined as 84%.

`O=[N+]([O-])Nc1c(Cl)c(Cl)cc(Cl)c1Cl` [drawing 59]: the “Rice Blast Percent Disease Control” value in series [1] is 83%. Also, the phytotoxicity result in the series on rice was “M/Sv”.

For the compound `CC(=O)N(c1c(Cl)c(Cl)cc(Cl)c1Cl)[N+](=O)[O-]` [drawing 83], the pest or weed control at 500 ppm in [3] turned out to be 92%.

In the case of `O=[N+]([O-])Nc1c(Cl)cccc1Cl` [drawing 75], the pest or weed control at 500 ppm in series [3] turned out to be 84%.

For the compound `Cc1cc([N+](=O)[O-])cc(C)c1N[N+](=O)[O-]` [2,6-dimethyl-4-nitro-], in series [3], the “activity against apple powdery mildew” value was “active”.

`CC(=O)N(c1c(Cl)c(Cl)cc(Cl)c1Cl)[N+](=O)[O-]` [N-acetyl derivative of 2,3,5,6-tetrachlorophenylnitramine]: in series [1], the “activity against the rice blast pathogen” value is listed as “considerable activity”. In addition, in series [3], the “activity against apple powdery mildew” value is “active”.

Consider `O=[N+]([O-])Nc1cccc(Br)c1` [3-bromophenylnitramine], for which the “activity against apple powdery mildew” value in series [3] was “active”.

As for `O=[N+]([O-])Nc1cccc(Cl)c1Cl` [2,3-dichlorophenylnitramine], in series [2], the “activity against apple scab” value is “active”. In series [3], the “activity against apple powdery mildew” value is “active”.

With `O=[N+]([O-])Nc1c(Cl)c(Cl)cc(Cl)c1Cl` [drawing 62], the “Rice Blast Percent Disease Control” value in [1] was 69%.

In the case of `O=[N+]([O-])Nc1ccc(Cl)c(C(F)(F)F)c1` [4-chloro-3-trifluoromethyl-], the “activity against apple powdery mildew” value in [3] is “active”.

As to `O=[N+]([O-])Nc1cccc(Br)c1` [drawing 77], in series [3], the pest or weed control at 500 ppm was 84%.
